Legend:
germline α promoter = test: TAQMAN assay of endogenous germline α transcription in ST486 cells stimulated with TGF-β; assay type: cell-based; details: TGF-β 40 ng/ml, average of 3 values, p=0.3228
Method: The assay was similar to that described in the immediately preceding section, except that ST486 cells (ATCC # CRL-1647) engineered to express the tetracycline-regulated transactivator were infected and the infected cells were stimulated with TGF-β (40 ng/ml; Peprotech). The primers and probe, which are specific for the transcription product driven by the ST486 endogenous α promoter, were as follows (the probe was labeled at the 5′-end with Fam and at the 3′-end with Tamra): […]

human CLIC1 (hCLIC1) = biological target: T1, human CLIC1 (hCLIC1) (Homo sapiens, UniProt O00299); test: β-galactosidase yeast two hybrid (YTH) interaction assay; assay type: binding
T1 construct: expressed in transfected cells; prey cDNA from the A5T4 reporter line (derived from BJAB B-cells)
Method: Potential binding partners for peptide DL03 wt (SEQ ID: 1) were identified in a β-galactosidase yeast two-hybrid (YTH) assay using peptide DL03 wt (SEQ ID: 1) as bait and a cDNA library constructed from the A5T4 reporter cell line as prey. Binding was assessed by β-galactosidase quantification using BetaFluor (Novagen) as a substrate. A negative interaction control (no cDNA fused downstream of the GAL4 activation domain sequence) was also run. A general outline of the YTH assay is illustrated in FIG. 5A. Following clustering, filtering to remove non-specific bait hits (e.g., GFP and BFP), singletons and clusters recognized by 10 or more cDNA baits (based upon historical YTH assays), and prioritization, 22 prey clones were identified as hits.
Potential targets identified in the YTH assay were reconfirmed as generally outlined in FIG. 6. The cDNA clones identified as hits in the YTH assay were purified and rescreened for interaction with the DL03 wt (SEQ ID NO:1) peptide in a YTH assay. The hit clones were also screened in a control assay for interaction with the BFP using a vector (pGBKT7) that contained only the BFP and not the DL03 peptide. At this stage, 12 putative target clones remained.
The interaction of DL03 wt (SEQ ID NO:1) peptide and its mutants with the clones identified as potential targets for the peptide DL03 wt (SEQ ID NO:1) was then quantified in a β-galactosidase YTH assay. The YTH assay was performed in the manner described above. A general outline of this YTH assay is illustrated in FIG. 5B. For each clone tested, an interaction profile was developed by comparing the β-galactosidase activity of each mutant to that of the wild type peptide as described above.
The interaction of these IOF and ROF mutants with different polypeptides encoded by the putative target clones were quantified using the YTH assay described above. Based on the YTH assay, for each putative target, the mutants were categorized into the following four interaction categories: (1) reduction of interaction (ROI); (2) loss of interaction (LOI); (3) increase of interaction (IOI); and (4) interactionally neutral (N), by assessing the binding affinity ratio of the mutant peptide and the wild type peptide (β-gal activity of mutant/wild type) to the putative target. For the YTH interaction assay mutants DL03IL (SEQ ID NO:2), DL03KP (SEQ ID NO:3), DL03LA (SEQ ID NO:4), as well as originally identified peptide DL03 wt (SEQ ID NO:1) were used.
Based on these functional and interaction categorizations, graphic profile representations for each potential target polypeptide were obtained using a weighted categorization process as depicted in FIG. 9. […]

[1] = system: IL-4 induced germline ε transcription; test: Re-infection assay in naïve A5T4 reporter cells (BFP-/BFP+ GFP FACS); assay type: cell-based, human; details: for functional category of mutant as compared to wild type peptide, based on reporter ratio: % change calculated after subtracting 1.0 from the individual ratios; for Reporter Ratio: screening in the A5T4 reporter line, DL03 wt and double-residue mutants
Method: The ability of peptide DL03 wt (SEQ ID NO:1) to inhibit germline ε transcription was confirmed in naïve cells. Briefly, Phoenix cells were transfected with a retroviral vector encoding a BFP-DL03 wt (SEQ ID NO:1) peptide fusion as described in WO 99/58663 and WO 97/27213. Naïve A5T4 cells were infected with the resultant virions and grown for 3 days. The infected cells were stimulated with IL-4 (60 U/mL) and, after 3 days, the cells were assessed by FACS for BFP and GFP. […] The BFP fluorescence data corresponding to the BFP^+ and BFP^− populations are provided in Panel A. The GFP fluorescence data corresponding to the BFP^+ and BFP^− populations are presented in Panel B. The reporter ratio for this purpose is determined as the geometric mean of the GFP fluorescence of the BFP^− population divided by the geometric mean of the GFP fluorescence of the BFP^+ population as presented in panel C. The reporter ratio for the DL03 in this re-infection assay was 1.50.
A collection of DL03 mutants was generated by replacing double amino acid residues in the sequence of DL03 wt (SEQ ID NO:1) with a different amino acid, typically an alanine, as described in copending application Ser. No. 10/095,659. The functional profiles for the mutants derived from DL03 wt (SEQ ID NO:1) was obtained by constructing and screening for activity in the A5T4 reporter cell line in the manner described above. The activity of each mutant at the germline ε promoter is reflected in the reporter ratio as described above. The reporter ratios were the functional values that were used to develop the functional profiles.
Comparison of the interaction and functional profiles was performed by categorizing the mutants of DL03 based on the functional and interaction assays. Based on the reporter ratio, described in panel C of FIG. 4, each mutant was categorized into one of four functional categories: (1) reduction of function (ROF); (2) loss of function (LOF); (3) increase of function (IOF) or (4) functionally neutral (N) as compared to the activity of the wild type peptide, here DL03 wt (SEQ ID NO:1). As mentioned previously, cells expressing a peptide that inhibits germline ε transcription have reporter ratios of ≧1.1. Cell expressing a loss of function (LOF) mutant have a reporter ratio of […]. […] Functionally neutral mutants have reporter ratios that fall within ±50% of that of the DL03 wt (SEQ ID NO:1). The % increase or decrease in reporter ratio is calculated after subtracting 1.0 from the individual ratios. Using these criteria, peptide DL03IL (SEQ ID NO:2) and peptide DL03LA (SEQ ID NO:4) were designated as ROF mutants, peptide DL03KP (SEQ ID NO:3) was designated as a IOF mutant, peptides DL03TS (SEQ ID NO:5), DL03GA (SEQ ID NO:6), DL03TT (SEQ ID NO:7), DL03AS (SEQ ID NO:8), and DL03MT (SEQ ID NO:9) were designated as neutral. No LOF mutant were found for the DL03 clone.

Q: With “LYTS I LLHGATTASMTKPLA (LYTSILLHGATTASMTKPLA; peptide generated from a combinatorial library) [DL03wt, peptide 20-mer identified from a retroviral random library, expressed in cells as BFP-peptide fusion]” as the substance, how does the “endogenous α inhibition ratio” value (germline α promoter) read?
A: Its value is 0.66.

Q: What about the “binding to human CLIC1 in yeast two hybrid interaction assay” value (shortened to “binding to human CLIC1”) (human CLIC1 (hCLIC1)) of the same substance?
A: The value was “found to bind”.

Q: Which results are given for “LYTS I LLHARTTASMTKPLA (LYTSILLHARTTASMTKPLA; peptide generated from combinatorial library) [DL03GA, double-residue mutant of DL03 wt]”?
A: functional category of mutant as compared to wild type peptide, based on reporter ratio [1]: neutral; Reporter Ratio [1]: 1.67

Q: With “LYTSAALHGATTASMTKPLA (Peptide generated by a combinatorial library) [DL03IL, double-residue mutant of DL03 wt]” as the substance, how does the “binding to human CLIC1” value (human CLIC1 (hCLIC1)) read?
A: The value was “found to bind”.

Q: Which “functional category of mutant as compared to wild type peptide, based on reporter ratio” value (“functional category … on reporter ratio” for short) [1] does the source give for “LYTS I LLHGATTRAMTKPLA (LYTSILLHGATTRAMTKPLA; Peptide generated from combinatorial library) [DL03AS, double-residue mutant of DL03 wt]” here?
A: Its value is “neutral”.

Q: What about the “Reporter Ratio” value [1] of the same substance?
A: Its value is 1.57.

Q: How did the “functional category … on reporter ratio” value [1] turn out when “LYTS I LLHGATTASMTAALA (LYTSILLHGATTASMTAALA; peptide generated from combinatorial library) [DL03KP, double-residue mutant of DL03 wt]” was run?
A: The value was “IOF (An increase of function mutant (IOF) shows a >50% increase in reporter ratio)”.

Q: And the “binding to human CLIC1” value (human CLIC1 (hCLIC1))?
A: Its value is “found to bind”.

Q: Which results are given for “LYTS I LLHGATTASAAKPLA (LYTSILLHGATTASAAKPLA; Peptide generated from combinatorial library) [DL03MT, double-residue mutant of DL03 wt]”?
A: functional category of mutant as compared to wild type peptide, based on reporter ratio [1]: neutral; Reporter Ratio [1]: 1.30

Q: With “LYTS I LLHGATTASMTKPAR (LYTSILLHGATTASMTKPAR; peptide generated from combinatorial library) [DL03LA, double-residue mutant of DL03 wt]” as the substance, how does the “binding to human CLIC1” value (human CLIC1 (hCLIC1)) read?
A: The value was “found to bind”.

Q: How did the “functional category … on reporter ratio” value [1] turn out when “LYAAI LLHGATTASMTKPLA (LYAAILLHGATTASMTKPLA; peptide generated from combinatorial library) [DL03TS, double-residue mutant of DL03 wt]” was run?
A: Its value is “neutral”.

Q: What about the “Reporter Ratio” value [1] of the same substance?
A: The value was 1.49.

Q: Which “functional category … on reporter ratio” value [1] does the source give for “LYTS I LLHGAAAASMTKPLA (LYTSILLHGAAAASMTKPLA; peptide generated from combinatorial library) [DL03TT, double-residue mutant of DL03 wt]” here?
A: The value was “neutral”.

Q: What about the “Reporter Ratio” value [1] of the same substance?
A: Its value is 1.43.

— US7374894B2, “Methods of identifying compounds that modulate IL-4 receptor-mediated IgE synthesis utilizing a chloride intracellular channel 1 protein” (Rigel Pharmaceuticals, Inc., priority 2002, dated 2008)
